Measurements as given in patent US9914730B2, “Azaquinazoline inhibitors of Atypical protein Kinase C” (Ignyta, Inc., priority 2012, dated 2018).
Structures can show the parent of a compound that is named as a salt.

What follows are molecules tested against T1, full-length human PKCι (Homo sapiens, UniProt P41743) (assay: PKCι IC50 IMAP assay, full-length PKCι at 150 μM ATP). Conditions: read-out: IC50 in IMAP assay against full length PKCi at 150 μM ATP.
T1 construct: Recombinant, full-length human PKCι expressed in Sf21 insect cells is also commercially available; purchased; host or cells: Sf21 insect cells
T1 sequence (P41743 1-596): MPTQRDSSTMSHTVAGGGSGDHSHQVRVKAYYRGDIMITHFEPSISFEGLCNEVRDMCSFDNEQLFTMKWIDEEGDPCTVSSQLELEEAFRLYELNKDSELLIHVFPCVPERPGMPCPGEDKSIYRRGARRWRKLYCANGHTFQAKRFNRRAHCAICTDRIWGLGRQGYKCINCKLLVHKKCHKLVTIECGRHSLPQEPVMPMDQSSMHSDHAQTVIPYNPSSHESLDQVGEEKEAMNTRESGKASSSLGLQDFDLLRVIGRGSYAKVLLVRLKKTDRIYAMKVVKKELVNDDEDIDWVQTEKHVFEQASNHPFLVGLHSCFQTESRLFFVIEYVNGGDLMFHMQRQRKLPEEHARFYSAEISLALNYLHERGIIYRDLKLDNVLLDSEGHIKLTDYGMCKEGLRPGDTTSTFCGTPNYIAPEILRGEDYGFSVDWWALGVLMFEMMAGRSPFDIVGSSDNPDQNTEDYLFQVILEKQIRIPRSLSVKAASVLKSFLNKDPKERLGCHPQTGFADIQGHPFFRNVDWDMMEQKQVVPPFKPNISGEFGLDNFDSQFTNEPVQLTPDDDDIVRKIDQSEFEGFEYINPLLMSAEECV
Type: biochemical
Method in brief: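 Compounds in 4% final DMSO are mixed with Sf21-derived full-length human PKCι (typically 15 pM) and 100 nM FAM-labelled pseudosubstrate peptide, then started with 150 μM ATP. Reaction runs 60 min at room temperature, is quenched with IMAP development reagent for 2 h, and fluorescence polarisation is measured to derive IC50.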
With c1cc(-c2nc(N3CCNCC3)c3c(C4CC4)cncc3n2)c2cc(C3CC3)[nH]c2n1 [Example 1223, 5-Cyclopropyl-2-(2-cyclopropyl-1H-pyrrolo[2,3-b]pyridin-4-yl)-4-piperazin-1-yl-pyrido[3,4-d]pyrimidine] the IC50 was < 100 nM. With CCOC(=O)N1CCN(c2nc(-c3ccnc4[nH]c(C(F)(F)F)cc34)nc3cncc(C4CC4)c23)CC1 [Example 1224, 4-[5-Cyclopropyl-2-(2-trifluoromethyl-1H-pyrrolo[2,3-b]pyridin-4-yl)-pyrido[3,4-d]pyrimidin-4-yl]-piperazine-1-carboxylic acid ethyl ester] the IC50 was 10000 to 40000 nM. Fc1cnc2[nH]ccc2c1-c1nc(N2CCNCC2)c2c(C3CC3)cncc2n1 [Example 1226, 5-Cyclopropyl-2-(5-fluoro-1H-pyrrolo[2,3-b]pyridin-4-yl)-4-piperazin-1-yl-pyrido[3,4-d]pyrimidine] was tested, and the IC50 was < 100 nM. In the case of FC(F)(F)c1cc2c(-c3nc(N4CCOCC4)c4c(C5CC5)cncc4n3)ccnc2[nH]1 [Example 1227, 5-Cyclopropyl-4-morpholin-4-yl-2-(2-trifluoromethyl-1H-pyrrolo[2,3-b]pyridin-4-yl)-pyrido[3,4-d]pyrimidine], the IC50 is reported as 10000 to 40000 nM. [2H]C([2H])([2H])c1cc2c(-c3nc(N4CCNCC4)c4c(C5CC5)cncc4n3)ccnc2[nH]1 [Example 1228, 5-Cyclopropyl-4-piperazin-1-yl-2-(2-triduteriomethyl-1H-pyrrolo[2,3-b]pyridin-4-yl)-pyrido[3,4-d]pyrimidine] was tested, and the IC50 was < 100 nM. In the case of CC(C)(C)c1cc2c(-c3nc(N4CCNCC4)c4c(C5CC5)cncc4n3)c(Cl)cnc2[nH]1 [Example 1229, 2-(2-tert-Butyl-5-chloro-1H-pyrrolo[2,3-b]pyridin-4-yl)-5-cyclopropyl-4-piperazin-1-yl-pyrido[3,4-d]pyrimidine], the IC50 is reported as < 100 nM. Fc1ccc(-c2cc3c(-c4nc(N5CCNCC5)c5c(C6CC6)cncc5n4)ccnc3[nH]2)cc1 [Example 1230, 5-Cyclopropyl-2-[2-(4-fluoro-phenyl)-1H-pyrrolo[2,3-b]pyridin-4-yl]-4-piperazin-1-yl-pyrido[3,4-d]pyrimidine] was tested, and the IC50 was < 100 nM. With CC(C)(C)c1cc2c(-c3nc(N4CCNCC4)c4c(C5CC5)cncc4n3)ccnc2[nH]1 [Example 1231, 2-(2-tert-Butyl-1H-pyrrolo[2,3-b]pyridin-4-yl)-5-cyclopropyl-4-piperazin-1-yl-pyrido[3,4-d]pyrimidine] the IC50 was < 100 nM. Fc1cnc2[nH]c(C(F)(F)F)cc2c1-c1nc(N2CCNCC2)c2c(C3CC3)cncc2n1 [Example 1232, 5-Cyclopropyl-2-(5-fluoro-2-trifluoromethyl-1H-pyrrolo[2,3-b]pyridin-4-yl)-4-piperazin-1-yl-pyrido[3,4-d]pyrimidine] was tested, and the IC50 was < 100 nM. C[C@H]1CN(c2nc(-c3ccnc4[nH]c(C(F)(F)F)cc34)nc3cncc(C4CC4)c23)CCN1 [Example 1233, 5-Cyclopropyl-4-((S)-3-methyl-piperazin-1-yl)-2-(2-trifluoromethyl-1H-pyrrolo[2,3-b]pyridin-4-yl)-pyrido[3,4-d]pyrimidine] was tested, and the IC50 was < 100 nM. Work on FC(F)(F)c1cc2c(-c3nc(N4CCNC(C(F)(F)F)C4)c4c(C5CC5)cncc4n3)ccnc2[nH]1 (stereo not shown) [Example 1236, 5-Cyclopropyl-4-(3-trifluoromethyl-piperazin-1-yl)-2-(2-trifluoromethyl-1H-pyrrolo[2,3-b]pyridin-4-yl)-pyrido[3,4-d]pyrimidine] yielded an IC50 of 1000 to 10000 nM. With FC(F)(F)c1cc2c(-c3nc(N4CCCCC4)c4c(C5CC5)cncc4n3)ccnc2[nH]1 [Example 1237, 5-Cyclopropyl-4-piperidin-1-yl-2-(2-trifluoromethyl-1H-pyrrolo[2,3-b]pyridin-4-yl)-pyrido[3,4-d]pyrimidine] the IC50 was 100 to 1000 nM. For FC(F)(F)C1(c2cc3c(-c4nc(N5CCNCC5)c5c(C6CC6)cncc5n4)ccnc3[nH]2)CC1 [Example 1238, 5-Cyclopropyl-4-piperazin-1-yl-2-[2-(1-trifluoromethyl-cyclopropyl)-1H-pyrrolo[2,3-b]pyridin-4-yl]-pyrido[3,4-d]pyrimidine], the IC50 was < 100 nM. With OC1CCN(c2nc(-c3ccnc4[nH]c(C(F)(F)F)cc34)nc3cncc(C4CC4)c23)CC1 [Example 1239, 1-[5-Cyclopropyl-2-(2-trifluoromethyl-1H-pyrrolo[2,3-b]pyridin-4-yl)-pyrido[3,4-d]pyrimidin-4-yl]-piperidin-4-ol] the IC50 was < 100 nM. c1ccc(C2(c3cc4c(-c5nc(N6CCNCC6)c6c(C7CC7)cncc6n5)ccnc4[nH]3)CC2)cc1 [Example 1240, 5-Cyclopropyl-2-[2-(1-phenyl-cyclopropyl)-1H-pyrrolo[2,3-b]pyridin-4-yl]-4-piperazin-1-yl-pyrido[3,4-d]pyrimidine] was tested, and the IC50 was < 100 nM. N#CC1CCN(c2nc(-c3ccnc4[nH]c(C(F)(F)F)cc34)nc3cncc(C4CC4)c23)CC1 [Example 1241, 1-[5-Cyclopropyl-2-(2-trifluoromethyl-1H-pyrrolo[2,3-b]pyridin-4-yl)-pyrido[3,4-d]pyrimidin-4-yl]-piperidine-4-carbonitrile] showed an IC50 of 100 to 1000 nM. In the case of OCC1CCN(c2nc(-c3ccnc4[nH]c(C(F)(F)F)cc34)nc3cncc(C4CC4)c23)CC1 [Example 1242, {1-[5-Cyclopropyl-2-(2-trifluoromethyl-1H-pyrrolo[2,3-b]pyridin-4-yl)-pyrido[3,4-d]pyrimidin-4-yl]-piperidin-4-yl}-methanol], the IC50 is reported as 1000 to 10000 nM. OCC1CN(c2nc(-c3ccnc4[nH]c(C(F)(F)F)cc34)nc3cncc(C4CC4)c23)C1 [Example 1243, {1-[5-Cyclopropyl-2-(2-tritluoromethyl-1H-pyrrolo[2,3-b]pyridin-4-yl)-pyrido[3,4-d]pyrimidin-4-yl]-azetidin-3-yl}-methanol] was tested, and the IC50 was 1000 to 10000 nM. OC1CCN(c2nc(-c3ccnc4[nH]c(C5(c6ccccc6)CC5)cc34)nc3cncc(C4CC4)c23)CC1 [Example 1244, 1-{5-Cyclopropyl-2-[2-(1-phenyl-cyclopropyl)-1H-pyrrolo[2,3-b]pyridin-4-yl]-pyrido[3,4-d]pyrimidin-4-yl}-piperidin-4-ol] was tested, and the IC50 was < 100 nM. O=S1(=O)CCN(c2nc(-c3ccnc4[nH]c(C(F)(F)F)cc34)nc3cncc(C4CC4)c23)CC1 [Example 1245, 5-Cyclopropyl-4-(1,1-dioxo-1λ^6-thiomorpholin-4-yl)-2-(2-trifluoromethyl-1H-pyrrolo[2,3-b]pyridin-4-yl)-pyrido[3,4-d]pyrimidine] showed an IC50 of 10000 to 40000 nM. FC(F)(F)c1cc2c(-c3nc(N4CCSCC4)c4c(C5CC5)cncc4n3)ccnc2[nH]1 [Example 1246, 5-Cyclopropyl-4-thiomorpholin-4-yl-2-(2-trifluoromethyl-1H-pyrrolo[2,3-b]pyridin-4-yl)-pyrido[3,4-d]pyrimidine] was tested, and the IC50 was 10000 to 40000 nM. In the case of CC(C)(C)c1cc2c(-c3nc(N4CCC(O)CC4)c4c(C5CC5)cncc4n3)ccnc2[nH]1 [Example 1247, 1-[2-(2-tert-Butyl-1H-pyrrolo[2,3-b]pyridin-4-yl)-5-cyclopropyl-pyrido[3,4-d]pyrimidin-4-yl]-piperidin-4-ol], the IC50 is reported as < 100 nM. FC(F)(F)c1cc2c(-c3nc(N4CCC4)c4c(C5CC5)cncc4n3)ccnc2[nH]1 [Example 1248, 4-Azetidin-1-yl-5-cyclopropyl-2-(2-trifluoromethyl-1H-pyrrolo[2,3-b]pyridin-4-yl)-pyrido[3,4-d]pyrimidine] gave an IC50 of 10000 to 40000 nM. CC(C)(C)c1cc2c(-c3nc(N4CCNC(=O)CC4)c4c(C5CC5)cncc4n3)ccnc2[nH]1 [Example 1249, 1-[2-(2-tert-Butyl-1H-pyrrolo[2,3-b]pyridin-4-yl)-5-cyclopropyl-pyrido[3,4-d]pyrimidin-4-yl]-[1,4]diazepan-5-one] was tested, and the IC50 was < 100 nM. For CC(C)(C)c1cc2c(-c3nc(N4CC[C@@H](O)C4)c4c(C5CC5)cncc4n3)ccnc2[nH]1 [Example 1250, (R)-1-[2-(2-tert-Butyl-1H-pyrrolo[2,3-b]pyridin-4-yl)-5-cyclopropyl-pyrido[3,4-d]pyrimidin-4-yl]-pyrrolidin-3-ol], the IC50 was < 100 nM. With CC1(C)CN(c2nc(-c3ccnc4[nH]c(C(F)(F)F)cc34)nc3cncc(C4CC4)c23)CCN1 [Example 1251, 5-Cyclopropyl-4-(3,3-dimethyl-piperazin-1-yl)-2-(2-trifluoromethyl-1H-pyrrolo[2,3-b]pyridin-4-yl)-pyrido[3,4-d]pyrimidine] the IC50 was < 100 nM. With c1cc(-c2nc(N3CCNCC3)c3c(C4CC4)cncc3n2)c2c(n1)NC1(CCCCC1)C2 [Example 1252, 4-(5-cyclopropyl-4-piperazin-1-yl-pyrido[3,4-d]pyrimidin-2-yl)spiro[1,3-dihydropyrrolo[2,3-b]pyridine-2,1′-cyclohexane]] the IC50 was < 100 nM. c1ccc2c(c1)[nH]c1nccc(-c3nc(N4CCNCC4)c4c(C5CC5)cncc4n3)c12 [Example 1253, 4-(5-Cyclopropyl-4-piperazin-1-yl-pyrido[3,4-d]pyrimidin-2-yl)-9H-pyrido[2,3-b]indole trifluoroacetic acid salt] was tested, and the IC50 was < 100 nM.
